# Square brackets hold non-standard residues; d marks the D form. Peptide text beside a SMILES is read from it. * marks the point of attachment. His(Trt) = N[C@@H](Cc1cn(C(c2ccccc2)(c2ccccc2)c2ccccc2)cn1)C(=O)O; His(τ-CHPh2) = N[C@@H](Cc1cn(C(c2ccccc2)c2ccccc2)cn1)C(=O)O; Tyr(3-Cl) = N[C@@H](Cc1ccc(O)c(Cl)c1)C(=O)O; dPhe(4-Me) = Cc1ccc(C[C@@H](N)C(=O)O)cc1; d3Pal = N[C@H](Cc1cccnc1)C(=O)O; Octanoyl = CCCCCCCC(=O)*
# Molecular target: T1, GPR39 (Homo sapiens, UniProt O43194)
# T1 sequence (O43194 1-453): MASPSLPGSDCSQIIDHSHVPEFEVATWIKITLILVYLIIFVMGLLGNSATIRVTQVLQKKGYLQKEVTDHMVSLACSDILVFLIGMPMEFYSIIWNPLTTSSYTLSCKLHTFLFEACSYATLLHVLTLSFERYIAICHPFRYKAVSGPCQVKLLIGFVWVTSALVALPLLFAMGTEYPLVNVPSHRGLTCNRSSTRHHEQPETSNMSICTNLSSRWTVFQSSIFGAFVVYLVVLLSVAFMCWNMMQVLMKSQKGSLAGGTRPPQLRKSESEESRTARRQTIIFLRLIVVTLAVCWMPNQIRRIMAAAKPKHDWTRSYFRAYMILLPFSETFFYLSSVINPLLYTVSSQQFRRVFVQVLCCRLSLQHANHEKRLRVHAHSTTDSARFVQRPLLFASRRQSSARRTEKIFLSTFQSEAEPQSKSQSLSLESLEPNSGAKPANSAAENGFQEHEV
# Experiment: luciferase assay system (SRE luciferase reporter gene, CV-1 cells expressing GPR39)
# Type: cell-based
# Set-up: expressed in transfected cells; host or cells: CV-1 fibroblast cell line (Korea Cell Line Bank), adenoviral transduction at 50 MOI
# Conditions: not given
row,Structure (SMILES),ECmax (−fold induction over basal) [fold induction over basal]
1,"CCCCCCCC(=O)NCCCC[C@H](NC(=O)[C@@H](N)Cc1cn(C(c2ccccc2)(c2ccccc2)c2ccccc2)cn1)C(=O)N[C@H](Cc1cccnc1)C(=O)N[C@@H](Cc1ccc(O)cc1)C(=O)O [HKFY-73, ((R)-2-((S)-2-((S)-2-amino-3-(1-trityl-1H-imidazol-4-yl)propanamido)-6-octanamidohexanamido)-3-(pyridin-3-yl)propanoyl)-L-tyrosine] (H-[His(Trt)]K(Octanoyl)[d3Pal]Y-OH)",11.6 ± 2.3
2,"CCCCCCCC(=O)NCCCC[C@H](NC(=O)[C@@H](N)Cc1cn(-c2ccccc2)c(-c2ccccc2)n1)C(=O)N[C@H](Cc1ccc(C)cc1)C(=O)N[C@@H](Cc1ccc(O)cc1)C(=O)O [HKFY-59, ((R)-2-((S)-2-((S)-2-amino-3-(1,2-diphenyl-1H-imidazol-4-yl)propanamido)-6-octanamidohexanamido)-3-(p-tolyl)propanoyl)-L-tyrosine]",6.76 ± 2.2
3,"CCCCCCCC(=O)NCCCC[C@H](NC(=O)[C@@H](N)Cc1cn([C@H](c2ccccc2)c2ccc(Cl)cc2)cn1)C(=O)N[C@@H](Cc1ccccc1)C(=O)N[C@@H](Cc1ccc(O)cc1)C(=O)O [HKFY-21, N2-(Nt-((R)-(4-chlorophenyl)(phenyl)methyl)-L-histidyl)-N6-octanoyl-L-lysyl-L-phenylalanyl-L-tyrosine]",18.3 ± 2.5
4,"CCCCCCCC(=O)NCCCC[C@H](NC(=O)[C@@H](N)Cc1cn(S(=O)(=O)c2ccc(C)cc2)cn1)C(=O)N[C@H](Cc1ccc(C)cc1)C(=O)N[C@@H](Cc1ccc(O)cc1)C(=O)O [HKFY-75, ((R)-2-((S)-2-((S)-2-amino-3-(1-tosyl-1H-imidazol-4-yl)propanamido)-6-octanamidohexanamido)-3-(p-tolyl)propanoyl)-L-tyrosine]",15.9 ± 4.12
5,"CCCCCCCC(=O)NCCCC[C@H](NC(=O)[C@@H](N)Cc1c[nH]c(-c2cccs2)n1)C(=O)N[C@H](Cc1ccc(C)cc1)C(=O)N[C@@H](Cc1ccc(O)cc1)C(=O)O [HKFY-63, ((R)-2-((S)-2-((S)-2-amino-3-(2-(thiophen-2-yl)-1H-imidazol-4-yl)propanamido)-6-octanamidohexanamido)-3-(p-tolyl)propanoyl)-L-tyrosine]",13.5 ± 1.8
6,"CCCCCCCC(=O)NCCCC[C@H](NC(=O)[C@@H](N)Cc1cn(C(c2ccccc2)c2ccccc2)cn1)C(=O)N[C@H](Cc1ccc(C)cc1)C(=O)N[C@@H](Cc1ccc(O)c(Cl)c1)C(=O)O [HKFY-67, (S)-2-((R)-2-((S)-2-((S)-2-amino-3-(1-benzhydryl-1H-imidazol-4-yl)propanamido)-6-octanamidohexanamido)-3-(p-tolyl)propanamido)-3-(3-chloro-4-hydroxyphenyl)propanoic acid] (H-[His(τ-CHPh2)]K(Octanoyl)[dPhe(4-Me)][Tyr(3-Cl)]-OH)",10.2 ± 1.51
7,"CCCCCCCC(=O)NCCCC[C@H](NC(=O)[C@@H](N)Cc1cn(C(c2ccccc2)(c2ccccc2)c2ccccc2)cn1)C(=O)N[C@@H](Cc1ccc(O)cc1)C(=O)N[C@@H](Cc1ccc(O)cc1)C(=O)O [HKFY-48, N6-octanoyl-N2-(Nt-trityl-L-histidyl)-L-lysyl-L-tyrosyl-L-tyrosine] (H-[His(Trt)]K(Octanoyl)YY-OH)",14.4 ± 2.7
8,"CCCCCCCC(=O)NCCCC[C@H](NC(=O)[C@@H](N)Cc1cn(C(c2ccccc2)(c2ccccc2)c2ccccc2)cn1)C(=O)N[C@@H](Cc1ccc(O)cc1)C(=O)N[C@@H](Cc1ccccc1)C(=O)O [HKFY-47, N6-octanoyl-N2-(Nt-trityl-L-histidyl)-L-lysyl-L-tyrosyl-L-phenylalanine] (H-[His(Trt)]K(Octanoyl)YF-OH)",13 ± 1.7

# Same assay, conditions: comment on Table 3
row,Structure (SMILES),activity level for GPR39 (in words)
1,"CCCCCCCC(=O)NCCCC[C@H](NC(=O)[C@@H](N)Cc1c[nH]c(-c2cccs2)n1)C(=O)N[C@H](Cc1ccc(C)cc1)C(=O)N[C@@H](Cc1ccc(O)cc1)C(=O)O [HKFY-63, ((R)-2-((S)-2-((S)-2-amino-3-(2-(thiophen-2-yl)-1H-imidazol-4-yl)propanamido)-6-octanamidohexanamido)-3-(p-tolyl)propanoyl)-L-tyrosine]",higher activity level than other HKFY derivatives

# Reference: US20250340591A1, “COMPOSITION FOR PREVENTING OR TREATING INFLAMMATORY BOWEL DISEASE CONTAINING NOVEL COMPOUND” (ANYGEN CO., LTD., priority 2021, published 2025)
